Reference: publication PMC12439480, “Dimeric CCK2R radiotheranostic tracers synergize with mTOR inhibition for enhanced tumor therapy” (Theranostics, 2025)
Numbered stars: 1 amine (or outer) side, 2 acyl side, 3 side chain; on linkers, the order of the positions; unused ones are H or OH. Square brackets hold non-standard residues; d marks the D form. Side chains are listed from the residue outwards. Peptide text beside a SMILES is read from it. * marks the point of attachment. DOTA = O=C(O)CN1CCN(CC(=O)O)CCN(CC(=O)*)CCN(CC(=O)O)CC1; d(γGlu) = O=C(O)[C@@H](CCC(=O)[*:2])N[*:1]; 1Nal = N[C@@H](Cc1cccc2ccccc12)C(=O)O; NMeNle = CCCC[C@H](NC)C(=O)O; PEG4 = NCCOCCOCCOCCOCCC(=O)O

Assay: Ex vivo biodistribution of 177Lu-labeled compound
Design: species or system BALB/c nude mice
Conditions: mouse, in vivo
Experimental: To evaluate the biodistribution of [^177Lu]Lu-DOTA-CCK2R-dimer, AR42J tumor-bearing mice received intravenous (i.v.) injections of 3.7 MBq (≈ 120 pmol) of [^177Lu]Lu-DOTA-CCK2R-dimer (dissolved in 200 μL of saline; n = 3/group), and Mice were sacrificed at 1, 4, 24, 48, 72, and 96 h post-injection. The tissues of interest were excised, weighed, and analyzed for radioactivity using a γ-counter.
All animal studies were approved by the Ethics Committee of Fudan University Shanghai Cancer Center (No. FUSCC-IACUC- S2023- 0003). Five-week-old female BALB/c nude mice were purchased from Shanghai SLAC Laboratory Animal
Company. To establish cell-derived xenograft (CDX) models, 1 × 10⁶ AR42J cells (100 μL) were subcutaneously inoculated into the right shoulder of each mouse. […]
Radioactivity levels were measured using a gamma counter, with decay correction applied based on the injection time. The percentage of injected dose per gram of tissue (%ID/g) was calculated for each time point. […]

CCCC[C@@H](C(=O)N[C@@H](CC(=O)O)C(=O)N[C@@H](Cc1cccc2ccccc12)C(N)=O)N(C)C(=O)[C@H](Cc1c[nH]c2ccccc12)NC(=O)CCOCCOCCOCCOCCNC(=O)CC[C@@H](NC(=O)CC[C@H](NC(=O)CN1CCN(CC(=O)O)CCN(CC(=O)O)CCN(CC(=O)O)CC1)C(=O)N[C@H](CCC(=O)NCCOCCOCCOCCOCCC(=O)N[C@@H](Cc1c[nH]c2ccccc12)C(=O)N(C)[C@@H](CCCC)C(=O)N[C@@H](CC(=O)O)C(=O)N[C@@H](Cc1cccc2ccccc12)C(N)=O)C(=O)O)C(=O)O [[177Lu]Lu-DOTA-CCK2R-dimer, metal not drawn] ({DOTA}-E([d(γGlu)-PEG4-Trp-NMeNle-Asp-1Nal-NH2])[d(γGlu)][PEG4]W[NMeNle]D[1Nal]-NH2)
tissue uptake at 48 h (Bladder uptake): 0.03 ± 0.01 %ID/g
tissue uptake at 72 h (Bladder uptake): 0.06 ± 0.03 %ID/g
tissue uptake at 96 h (Bladder uptake): 0.1 ± 0.05 %ID/g
tissue uptake at 1 h (Blood uptake): 6.93 ± 1.84 %ID/g
tissue uptake at 4 h (Blood uptake): 1.19 ± 0.3 %ID/g
tissue uptake at 24 h (Blood uptake): 0.05 ± 0.01 %ID/g
tissue uptake at 48 h (Blood uptake): 0.02 ± 0.01 %ID/g
tissue uptake at 72 h (Blood uptake): 0.002 ± 0.0005 %ID/g
tissue uptake at 96 h (Blood uptake): 0.008 ± 0.007 %ID/g
tissue uptake at 1 h (Bone uptake): 0.65 ± 0.27 %ID/g
tissue uptake at 4 h (Bone uptake): 0.35 ± 0.19 %ID/g
tissue uptake at 24 h (Bone uptake): 0.04 ± 0.02 %ID/g
tissue uptake at 48 h (Bone uptake): 0.004 ± 0.001 %ID/g
tissue uptake at 72 h (Bone uptake): 0.03 ± 0.02 %ID/g
tissue uptake at 96 h (Bone uptake): 0.02 ± 0.01 %ID/g
tissue uptake at 1 h (Brain uptake): 0.14 ± 0.01 %ID/g
tissue uptake at 4 h (Brain uptake): 0.03 ± 0.01 %ID/g
tissue uptake at 24 h (Brain uptake): 0.003 ± 0.002 %ID/g
tissue uptake at 48 h (Brain uptake): 0.003 ± 0.002 %ID/g
tissue uptake at 72 h (Brain uptake): 0.004 ± 0.003 %ID/g
tissue uptake at 96 h (Brain uptake): 0.006 ± 0.002 %ID/g
tissue uptake at 1 h (Heart uptake): 1.29 ± 0.41 %ID/g
tissue uptake at 4 h (Heart uptake): 0.67 ± 0.34 %ID/g
tissue uptake at 24 h (Heart uptake): 0.05 ± 0.03 %ID/g
tissue uptake at 48 h (Heart uptake): 0.02 ± 0.02 %ID/g
tissue uptake at 72 h (Heart uptake): 0.02 ± 0.008 %ID/g
tissue uptake at 96 h (Heart uptake): 0.03 ± 0.01 %ID/g
tissue uptake at 1 h (Kidney uptake): 8.92 ± 1.05 %ID/g
tissue uptake at 4 h (Kidney uptake): 6.79 ± 1.58 %ID/g
tissue uptake at 24 h (Kidney uptake): 3.43 ± 0.84 %ID/g
tissue uptake at 48 h (Kidney uptake): 1.59 ± 1 %ID/g
tissue uptake at 72 h (Kidney uptake): 1.6 ± 0.39 %ID/g
tissue uptake at 96 h (Kidney uptake): 1 ± 0.5 %ID/g
tissue uptake at 1 h (Large intestine uptake): 1.14 ± 0.38 %ID/g
tissue uptake at 4 h (Large intestine uptake): 0.61 ± 0.03 %ID/g
tissue uptake at 24 h (Large intestine uptake): 0.07 ± 0.01 %ID/g
tissue uptake at 48 h (Large intestine uptake): 0.05 ± 0.02 %ID/g
tissue uptake at 72 h (Large intestine uptake): 0.04 ± 0.03 %ID/g
tissue uptake at 96 h (Large intestine uptake): 0.05 ± 0.03 %ID/g
tissue uptake at 1 h (Liver uptake): 4.44 ± 1.8 %ID/g
tissue uptake at 4 h (Liver uptake): 3.42 ± 0.75 %ID/g
tissue uptake at 24 h (Liver uptake): 0.61 ± 0.11 %ID/g
tissue uptake at 48 h (Liver uptake): 0.58 ± 0.16 %ID/g
tissue uptake at 72 h (Liver uptake): 0.37 ± 0.05 %ID/g
tissue uptake at 96 h (Liver uptake): 0.42 ± 0.11 %ID/g
tissue uptake at 1 h (Lung uptake): 2.4 ± 0.05 %ID/g
tissue uptake at 4 h (Lung uptake): 1.06 ± 0.39 %ID/g
tissue uptake at 24 h (Lung uptake): 0.04 ± 0.03 %ID/g
tissue uptake at 48 h (Lung uptake): 0.02 ± 0.01 %ID/g
tissue uptake at 72 h (Lung uptake): 0.01 ± 0.01 %ID/g
tissue uptake at 96 h (Lung uptake): 0.02 ± 0.005 %ID/g
tissue uptake at 1 h (Muscle uptake): 0.36 ± 0.1 %ID/g
tissue uptake at 4 h (Muscle uptake): 0.16 ± 0.17 %ID/g
tissue uptake at 24 h (Muscle uptake): 0.01 ± 0.01 %ID/g
tissue uptake at 48 h (Muscle uptake): 0.007 ± 0.003 %ID/g
tissue uptake at 72 h (Muscle uptake): 0.007 ± 0.002 %ID/g
tissue uptake at 96 h (Muscle uptake): 0.006 ± 0.004 %ID/g
tissue uptake at 1 h (Small intestine uptake): 1.45 ± 0.39 %ID/g
tissue uptake at 4 h (Small intestine uptake): 0.58 ± 0.31 %ID/g
tissue uptake at 24 h (Small intestine uptake): 0.06 ± 0.04 %ID/g
tissue uptake at 48 h (Small intestine uptake): 0.06 ± 0.01 %ID/g
tissue uptake at 72 h (Small intestine uptake): 0.02 ± 0.01 %ID/g
tissue uptake at 96 h (Small intestine uptake): 0.04 ± 0.03 %ID/g
tissue uptake at 1 h (Spleen uptake): 2.62 ± 1.02 %ID/g
tissue uptake at 4 h (Spleen uptake): 2.23 ± 0.32 %ID/g
tissue uptake at 24 h (Spleen uptake): 0.15 ± 0.08 %ID/g
tissue uptake at 48 h (Spleen uptake): 0.02 ± 0.01 %ID/g
tissue uptake at 72 h (Spleen uptake): 0.05 ± 0.03 %ID/g
tissue uptake at 96 h (Spleen uptake): 0.15 ± 0.09 %ID/g
tissue uptake at 1 h (Stomach uptake): 3.88 ± 0.66 %ID/g
tissue uptake at 4 h (Stomach uptake): 3.05 ± 0.6 %ID/g
tissue uptake at 24 h (Stomach uptake): 1.07 ± 0.28 %ID/g
tissue uptake at 48 h (Stomach uptake): 1.04 ± 0.17 %ID/g
tissue uptake at 72 h (Stomach uptake): 0.26 ± 0.11 %ID/g
tissue uptake at 96 h (Stomach uptake): 0.24 ± 0.3 %ID/g
tissue uptake at 1 h (Tumor uptake): 19.2 ± 8.43 %ID/g
tissue uptake at 4 h (Tumor uptake): 14.7 ± 2.83 %ID/g
tissue uptake at 24 h (Tumor uptake): 6.12 ± 1.45 %ID/g
tissue uptake at 48 h (Tumor uptake): 4.32 ± 0.75 %ID/g
tissue uptake at 72 h (Tumor uptake): 2.01 ± 0.47 %ID/g
tissue uptake at 96 h (Tumor uptake): 1.1 ± 0.04 %ID/g
